In article PMC11666850, “Development and evaluation of deuterated [^18F]JHU94620 isotopologues for the non-invasive assessment of the cannabinoid type 2 receptor in brain” (EJNMMI Radiopharmacy and Chemistry, 2024):
“And” between values parts separate entries of the source, which are not always exact repeats. Identical values can stand only once. Like-named read-outs stand apart in the source and are kept apart here.

Columns and labels:
[1] = target: T1, hCB2R(D80N) (Homo sapiens, UniProt P34972, D80N); assay: Homologous displacement autoradiography, brain cryosections of rats with hCB2R(D80N) overexpression; assay type: binding
T1 sequence (P34972 whole entry D80N): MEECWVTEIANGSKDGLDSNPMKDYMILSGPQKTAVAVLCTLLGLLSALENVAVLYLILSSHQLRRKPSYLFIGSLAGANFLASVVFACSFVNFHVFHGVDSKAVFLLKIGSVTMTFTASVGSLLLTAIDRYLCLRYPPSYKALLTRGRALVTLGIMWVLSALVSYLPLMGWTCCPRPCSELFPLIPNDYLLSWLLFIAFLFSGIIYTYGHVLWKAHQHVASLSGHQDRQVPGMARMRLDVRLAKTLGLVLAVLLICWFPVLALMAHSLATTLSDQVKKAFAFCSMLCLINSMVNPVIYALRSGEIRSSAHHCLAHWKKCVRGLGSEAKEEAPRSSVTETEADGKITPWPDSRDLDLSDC

[2] = target: T1, hCB2R(D80N)
[3] = target: T2, CB2R (Rattus norvegicus, UniProt Q9QZN9); assay: Quantitative autoradiography, rat spleen cryosections; assay type: binding
T2 construct: from tissue; host or cells: rat spleen: cryosections in vitro, and spleen of living Wistar rats in PET
T2 sequence (Q9QZN9 1-360): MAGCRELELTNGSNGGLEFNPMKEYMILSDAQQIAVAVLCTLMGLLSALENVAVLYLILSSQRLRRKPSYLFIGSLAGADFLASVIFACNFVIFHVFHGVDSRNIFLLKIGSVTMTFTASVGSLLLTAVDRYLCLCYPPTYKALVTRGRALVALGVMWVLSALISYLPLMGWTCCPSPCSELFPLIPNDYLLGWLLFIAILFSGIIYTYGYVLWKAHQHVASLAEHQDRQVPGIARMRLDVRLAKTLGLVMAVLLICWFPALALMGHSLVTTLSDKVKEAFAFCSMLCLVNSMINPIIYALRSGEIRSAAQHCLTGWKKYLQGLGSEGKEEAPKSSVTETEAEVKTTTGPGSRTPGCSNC
Procedure: (§1) For quantitative autoradiography in different species, 10 µm cryosections from mouse, rat and piglet spleen were thawed, dried, and pre-incubated with incubation buffer for 10 min, dried under an airstream. Subsequently, the incubation buffer containing [^18F]JHU94620-d8 (59–137 GBq µmol^−1, 1.7–3.6 nM) was added alone or together with indicated concentrations of the reference compound. Additionally, to assess the non-specific binding of [^18F]JHU94620-d8 to cryosections GW405833 was added instead of the reference compound. After 90 min, cryosections were washed two times for 2 min with ice-cold 50 mM Tris HCl, pH7.4 and 10 s in ddH2O and subsequently dried under an airstream. For the calculation of the radioactivity concentration, 5 µl of five serial 1:2 dilutions of the incubation buffer with [^18F]JHU94620-d8 were air-dried on a microscopic slide. For binding studies in rat spleen cryosections by autoradiography with HLM-derived radiometabolites of [^18F]JHU94620-d8 obtained from the radiometabolite assay, the samples were added to the incubation buffer to a final activity concentration of 0.2 MBq mL^−1 and protocol was followed as described above. Subsequently, the slides were exposed to a phosphor imager plate. After scanning at high sensitivity and a 12.5 µm resolution with a CR35 Bio image plate scanner (Raytest Isotopenmessgeräte GmbH, Straubenhardt, Germany). The analyses of the autoradiographic images were performed with the AIDA 5.1 software (Elysia-Raytest, Angleur, Belgium) resulting in a resolution of 12.617 pixel × 12.616 pixel per µm^2 (1 voxel = 1592 µm^3 ≙ 1.59 10^–3 µg wet tissue) and inhibition curves were created with GraphPad Prism 9.5.1 (GraphPad Inc., La Jolla, CA).
The KD values were calculated with GraphPad Prism according to the modified Cheng-Prusoff method for homologous competitive binding studies, where the KD = Ki = IC50—[radioligand] and the Bmax = specific binding / [radioligand] / ((KD + [radioligand])) (Motulsky and Neubig [2000]), assuming a total protein content of 8.2% (1.3 10^–4 µg protein per voxel) in the spleen (Zaia et al. [2000]) or by determining the protein concentration of the cell membrane lysates using a BCA assay (Thermo Scientific, Braunschweig, Germany). The fractional occupancy defined as occupied binding sites per total binding sites is used to describe the binding fraction specifically bound to CB2R compared to unspecific binding, where [L] is the concentration of the ligand at the start of incubation.

[4] = target: T3, CB2R (Mus musculus, UniProt P47936); assay: Quantitative autoradiography, mouse spleen cryosections; assay type: binding
T3 construct: from tissue; host or cells: mouse spleen cryosections
T3 sequence (P47936 whole entry): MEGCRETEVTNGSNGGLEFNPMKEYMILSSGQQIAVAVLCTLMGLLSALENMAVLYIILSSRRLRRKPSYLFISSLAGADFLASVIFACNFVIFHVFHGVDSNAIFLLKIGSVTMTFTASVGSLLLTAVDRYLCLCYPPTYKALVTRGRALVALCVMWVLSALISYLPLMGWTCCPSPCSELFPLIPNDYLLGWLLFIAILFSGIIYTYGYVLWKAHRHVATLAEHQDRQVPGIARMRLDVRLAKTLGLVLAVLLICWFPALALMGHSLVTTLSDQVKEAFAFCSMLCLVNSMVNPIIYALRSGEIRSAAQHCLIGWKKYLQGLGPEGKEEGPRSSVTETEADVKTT
Procedure: as §1, with “CA). […]” for “CA).”

[5] = female, Wistar, rat, in vivo, 60 min

[2H]C([2H])([18F])C([2H])([2H])C([2H])([2H])C([2H])([2H])n1c(C)c(C)s/c1=N\C(=O)C1C(C)(C)C1(C)C [[^18F]JHU94620-d8]
Kd [1]: 41 nM | BPND in the hCB2R(D80N) region ([2]; SRTM, cerebellar region as reference): 26 | reduction of AUC20-60min when normalized to the cerebellum ([2]; after injection of GW405833, compared to the control group): 61% | TAC peak, potential reference regions (contralateral and cerebellum) ([2]; female, Wistar, rat, in vivo): about 3 SUVmean | VT in the brain region bearing the hCB2R(D80N) overexpression ([2]; female, Wistar, rat, in vivo): 320 ± 135 mL ccm^−1 | VT in the other investigated brain regions ([2]; female, Wistar, rat, in vivo): 5.9-13.8 mL ccm^−1 | SUVmean in the cerebellar region at 60 min p.i. [2, 5]: 0.16 ± 0.03 SUVmean | SUVmean in the contralateral region at 60 min p.i. [2, 5]: 0.8 ± 0.3 SUVmean | AUC20-60min (CI95%), hCB2R D80N-to-Cerebellum ([2]; human, in vivo): 1128 (1058 to 1198) SUVr ∙ min | AUC20-60min (CI95%), hCB2R D80N-to-Contralateral ([2]; human, in vivo): 291 (226 to 355) SUVr ∙ min | AUC, Cerebellum ([2]; human, in vivo): 30 ± 4 SUV ∙ min | AUC, Contralateral ([2]; human, in vivo): 74 ± 16 SUV ∙ min | AUC, hCB2R(D80N) ([2]; human, in vivo): 412 ± 90 SUV ∙ min | AUC20-60min (CI95%), hCB2R D80N-to-Cerebellum ([2]; human, in vivo, iv, 5 mg/kg): 435 (367 to 502) SUVr ∙ min | AUC20-60min (CI95%), hCB2R D80N-to-Contralateral ([2]; human, in vivo, iv, 5 mg/kg): 272 (233 to 311) SUVr ∙ min | Kd ([3]; KD values determined by autoradiography, rat and mouse spleen (range over both species)): 0.74 to 1.98 nM | Kd ([3]; KD, rat spleen cryosection, homologous displacement autoradiography, n = 3): 0.74 nM | specific binding to CB2R ([3]; rat spleen cryosections, blocking with 10 µM GW405833 or self-blocking): 48 ± 6% and 48% | Bmax ([3]; spleen of rats): 0.08 pmol mg^−1 protein | Kd [4]: 1.98 nM | specific binding to CB2R ([4]; mouse spleen cryosections, blocking with 10 µM GW405833 or self-blocking): 40 ± 18% | Bmax ([4]; spleen of mice): 0.08 pmol mg^−1 protein
